# Test results from patent US20120157452A1, “1H-PYRAZOLO[3,4-B] PYRIDINE COMPOUNDS FOR INHIBITING RAF KINASE” (GENENTECH, INC., priority 2009, published 2012).
# Biological target: T1, V600E full-length B-Raf (Homo sapiens, UniProt P15056, V600E)
# T1 construct: made in house; host or cells: Sf9 insect cells (baculovirus)
# Assay: B-Raf IC50 assay: incorporation of radio labeled phosphate from [γ-33P]ATP into FSBA-modified wild-type MEK
# Format: biochemical
# Source text: Determining the activity of Raf in the sample is possible by a number of direct and indirect detection methods (US 2004/0082014). Activity of human recombinant B-Raf protein may be assessed in vitro by assay of the incorporation of radio labeled phosphate to recombinant MAP kinase (MEK), a known physiologic substrate of B-Raf, according to US 2004/0127496 and WO 03/022840. The activity/inhibition of V600E full-length B-Raf was estimated by measuring the incorporation of radio labeled phosphate from [γ-^33]ATP into FSBA-modified wild-type MEK (see Biological Example 1).
# Activity of human recombinant B-Raf protein may be assessed in vitro by assay of the incorporation of radio labeled phosphate to recombinant MAP kinase (MEK), a known physiologic substrate of B-Raf, according to US 2004/0127496 and WO 03/022840. Catalytically active human recombinant B-Raf protein is obtained by purification from sf9 insect cells infected with a human B-Raf recombinant baculovirus expression vector.
# The activity/inhibition of V600E full-length B-Raf was estimated by measuring the incorporation of radio labeled phosphate from [γ-^33]ATP into FSBA-modified wild-type MEK. The 30-μL, assay mixtures contained 25 mM Na Pipes, pH 7.2, 100 mM KCl, 10 mM MgCl2, 5 mM β-glycerophosphate, 100 μM Na Vanadate, 4 μM ATP, 500 nCi [γ-^33P]ATP, 1 μM FSBA-MEK and 20 nM V600E full-length B-Raf. Incubations were carried out at 22° C. in a Costar 3365 plate (Corning). Prior to the assay, the B-Raf and FSBA-MEK were preincubated together in assay buffer at 1.5× (20 μL of 30 nM and 1.5 μM, respectively) for 15 minutes, and the assay was initiated by the addition of 10 μL of […]. Following the 60-minute incubation, the assay mixtures were quenched by the addition of 100 μL of 25% TCA, the plate was mixed on a rotary shaker for 1 minute, and the product was captured on a Perkin-Elmer GF/B filter plate using a Tomtec Mach III Harvester. After sealing the bottom of the plate, 35 μL of Bio-Safe II (Research Products International) scintillation cocktail were added to each well and the plate was top-sealed and counted in a Topcount NXT (Packard).
# [1] = 4 μM ATP, 60-minute incubation, representative data of multiple tests
# T1 sequence (P15056 whole entry V600E): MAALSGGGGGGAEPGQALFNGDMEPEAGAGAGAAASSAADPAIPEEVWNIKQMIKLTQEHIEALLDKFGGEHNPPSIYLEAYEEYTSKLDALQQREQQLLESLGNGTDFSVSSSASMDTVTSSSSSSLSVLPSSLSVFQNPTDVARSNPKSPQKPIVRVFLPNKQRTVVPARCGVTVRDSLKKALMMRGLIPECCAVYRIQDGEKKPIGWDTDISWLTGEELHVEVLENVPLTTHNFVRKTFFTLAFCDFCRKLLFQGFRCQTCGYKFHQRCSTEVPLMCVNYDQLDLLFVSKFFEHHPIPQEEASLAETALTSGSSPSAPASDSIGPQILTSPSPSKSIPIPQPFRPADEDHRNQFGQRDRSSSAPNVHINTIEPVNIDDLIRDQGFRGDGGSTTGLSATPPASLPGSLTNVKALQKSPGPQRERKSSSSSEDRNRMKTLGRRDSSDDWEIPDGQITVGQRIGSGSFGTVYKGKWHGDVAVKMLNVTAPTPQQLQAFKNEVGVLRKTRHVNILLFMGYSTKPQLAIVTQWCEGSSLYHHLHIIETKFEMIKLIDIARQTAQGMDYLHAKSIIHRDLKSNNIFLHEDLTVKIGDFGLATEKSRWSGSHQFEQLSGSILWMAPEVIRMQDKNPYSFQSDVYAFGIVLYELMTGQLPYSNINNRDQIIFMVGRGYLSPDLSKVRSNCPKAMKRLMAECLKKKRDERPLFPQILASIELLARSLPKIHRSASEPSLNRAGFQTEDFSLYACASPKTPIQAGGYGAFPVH
Compound,IC50 [1],IC50 (bound stated)
"COc1n[nH]c2ncc(NC(=O)c3c(Cl)ccc(OCc4ccc(F)cc4F)c3F)cc12 [Example 62, 6-chloro-3-(2,4-difluorobenzyloxy)-2-fluoro-N-(3-methoxy-1H-pyrazolo[3,4-b]pyridin-5-yl)benzamide]",1.45 nM,< 100 nM
"COc1n[nH]c2ncc(NC(=O)c3c(Cl)ccc(OCc4cnn(C)c4)c3F)cc12 [Example 70, 6-chloro-2-fluoro-N-(3-methoxy-1H-pyrazolo[3,4-b]pyridin-5-yl)-3-((1-methyl-1H-pyrazol-4-yl)methoxy)benzamide]",25.7 nM,< 100 nM
"COc1n[nH]c2ncc(NC(=O)c3c(Cl)ccc(OCc4ccc(Br)cc4)c3F)cc12 [Example 48, 3-(4-bromobenzyloxy)-6-chloro-2-fluoro-N-(3-methoxy-1H-pyrazolo[3,4-b]pyridin-5-yl)benzamide]",1.68 nM,< 100 nM
"CC(C)Oc1n[nH]c2ncc(NC(=O)c3c(Cl)ccc(OCc4ccccc4)c3F)cc12 [Example 16, 3-(benzyloxy)-6-chloro-2-fluoro-N-(3-isopropoxy-1H-pyrazolo[3,4-b]pyridin-5-yl)benzamide]",1.71 nM,< 100 nM
"COc1n[nH]c2ncc(NC(=O)c3cc(OCc4ccccc4)ccc3F)cc12 [Example 2, 5-(benzyloxy)-2-fluoro-N-(3-methoxy-1H-pyrazolo[3,4-b]pyridin-5-yl)benzamide]",55.8 nM,< 100 nM
"COc1n[nH]c2ncc(NC(=O)c3c(Cl)ccc(OCc4ccco4)c3F)cc12 [Example 54, 6-chloro-2-fluoro-3-(furan-2-ylmethoxy)-N-(3-methoxy-1H-pyrazolo[3,4-b]pyridin-5-yl)benzamide]",3.36 nM,< 100 nM
"COc1n[nH]c2ncc(NC(=O)c3c(Cl)ccc(OCc4cscn4)c3F)cc12 [Example 37, 6-chloro-2-fluoro-N-(3-methoxy-1H-pyrazolo[3,4-b]pyridin-5-yl)-3-(thiazol-4-ylmethoxy)benzamide]",3.8 nM,< 100 nM
"COc1n[nH]c2ncc(NC(=O)c3c(Cl)ccc(OCc4ccc(C5CC5)cc4)c3F)cc12 [Example 77, 6-chloro-3-(4-cyclo-propylbenzyloxy)-2-fluoro-N-(3-methoxy-1H-pyrazolo[3,4-b]pyridin-5-yl)benzamide]",0.56 nM,< 100 nM
"COc1n[nH]c2ncc(NC(=O)c3c(F)ccc(OCc4ccccc4)c3F)cc12 [Example 26, 3-(benzyloxy)-2,6-difluoro-N-(3-methoxy-1H-pyrazolo[3,4-b]pyridin-5-yl)benzamide]",2.41 nM,< 100 nM
"CCc1ccc(COc2ccc(Cl)c(C(=O)Nc3cnc4[nH]nc(OC)c4c3)c2F)cc1 [Example 55, 6-chloro-3-(4-ethylbenzyloxy)-2-fluoro-N-(3-methoxy-1H-pyrazolo[3,4-b]pyridin-5-yl)benzamide]",1.47 nM,< 100 nM
"COc1n[nH]c2ncc(NC(=O)c3c(Cl)ccc(OCc4ccc(C)nc4)c3F)cc12 [Example 46, 6-chloro-2-fluoro-N-(3-methoxy-1H-pyrazolo[3,4-b]pyridin-5-yl)-3-((6-methylpyridin-3-yl)methoxy)benzamide]",6.09 nM,< 100 nM
"COc1n[nH]c2ncc(NC(=O)c3c(Cl)ccc(OCc4ncccn4)c3F)cc12 [Example 41, 6-chloro-2-fluoro-N-(3-methoxy-1H-pyrazolo[3,4-b]pyridin-5-yl)-3-(pyrimidin-2-ylmethoxy)benzamide]",152 nM,< 500 nM
"COc1n[nH]c2ncc(NC(=O)c3c(C)ccc(OCc4ccc(Cl)cn4)c3F)cc12 [Example 74, 3-((5-chloropyridin-2-yl)methoxy)-2-fluoro-N-(3-methoxy-1H-pyrazolo[3,4-b]pyridin-5-yl)-6-methylbenzamide]",0.51 nM,< 100 nM
"CSc1n[nH]c2ncc(NC(=O)c3c(Cl)ccc(OCc4ccccc4)c3F)cc12 [Example 12, 3-(benzyloxy)-6-chloro-2-fluoro-N-(3-(methylthio)-1H-pyrazolo[3,4-b]pyridin-5-yl)benzamide]",1.85 nM,< 100 nM
